Here are results for 15 compounds from US12187709B2 (Genentech, Inc., priority 2021, dated 2025).

The target of one test is Cbl-b (Homo sapiens (Human), UniProt Q13191). As to the kind of experiment: Cbl-b LCK Ub TR-FRET assay (Cbl-b Lck HTRF). It counts as biochemical. Particulars: for IC50: Cbl-b LCK Ub TR-FRET; for fold-selectivity (Cbl-b over C-cbl): ratio C-cbl Lck HTRF IC50 / Cbl-b Lck HTRF IC50. Put shortly:
(§1)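 Signal is read once the detection mix has stood 20 min at ambient temperature. Curves are anchored by DMSO as maximum and by omission of LCK as minimum.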

For test [1], the target named is Human Cbl-b (residues 40-426) (Homo sapiens (Human), UniProt Q13191). In words: Cbl-b SPR assay. It counts as binding. As to conditions: for Fold of selectivity: C-cbl SPR Kd vs Cbl-b SPR Kd; for Kd: SPR, 20° C. Put shortly: (§2)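 Binding was measured by SPR and fitted to a 1:1 model from multi-cycle kinetics with double referencing, 6 concentrations in 2-fold dilution. Alternatively, single-cycle titrations up to 500 nM (120 s contact) were fitted with kd fixed from a single-exponential fit of chaser-measured % compound bound versus time.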
Sequence of Human Cbl-b (residues 40-426) (Q13191 40-426): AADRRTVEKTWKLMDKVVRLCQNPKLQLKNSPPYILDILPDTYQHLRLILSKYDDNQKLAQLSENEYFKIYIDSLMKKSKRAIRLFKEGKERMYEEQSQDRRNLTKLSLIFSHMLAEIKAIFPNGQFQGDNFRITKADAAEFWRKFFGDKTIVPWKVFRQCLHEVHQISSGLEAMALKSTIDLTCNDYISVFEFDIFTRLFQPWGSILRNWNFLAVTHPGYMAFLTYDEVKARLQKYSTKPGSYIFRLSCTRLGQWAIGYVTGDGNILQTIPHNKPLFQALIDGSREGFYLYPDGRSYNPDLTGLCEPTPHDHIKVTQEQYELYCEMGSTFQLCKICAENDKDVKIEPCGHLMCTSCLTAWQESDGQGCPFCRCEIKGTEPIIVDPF

The target of the next test is c-Cbl (Homo sapiens (Human), UniProt P22681). In words: C-Cbl LCK Ub TR-FRET assay (C-cbl Lck HTRF). It counts as biochemical. Put shortly: as §1
Sequence of c-Cbl (P22681 47-435): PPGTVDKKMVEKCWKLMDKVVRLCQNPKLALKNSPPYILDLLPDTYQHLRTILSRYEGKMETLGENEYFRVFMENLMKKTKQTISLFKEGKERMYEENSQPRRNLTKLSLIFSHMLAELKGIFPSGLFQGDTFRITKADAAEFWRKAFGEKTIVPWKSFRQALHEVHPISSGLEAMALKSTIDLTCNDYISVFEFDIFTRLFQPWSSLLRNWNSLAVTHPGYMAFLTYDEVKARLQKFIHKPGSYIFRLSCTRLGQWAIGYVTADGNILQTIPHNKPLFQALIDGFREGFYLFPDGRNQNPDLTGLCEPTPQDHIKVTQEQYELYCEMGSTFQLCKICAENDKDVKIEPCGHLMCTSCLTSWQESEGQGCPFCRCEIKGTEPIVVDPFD
(TR-FRET usually uses a lanthanide donor and a delayed reading to cut background.)

Another test addresses c-Cbl (residues 47-435) (Homo sapiens (Human), UniProt P22681). In words: c-Cbl SPR assay. It counts as binding. Particulars: 20° C. Put shortly:
as §2
On the technique in general: SPR reads the build-up and loss of mass on a sensor chip optically.

Sequence of Cbl-b (Q13191 40-426): as the sequence (Q13191 40-426) above
Sequence of c-Cbl (residues 47-435) (P22681 47-435): as the sequence (P22681 47-435) above

For the compound `Cn1cnnc1[C@]1(c2cccc(N3Cc4c(Cl)cc(CNC5(C)CCC5)cc4C3=O)c2)C[C@H](F)C1` [Compound 246, 4-chloro-2-(3-((1s,3s)-3-fluoro-1-(4-methyl-4H-1,2,4-triazol-3-yl)cyclobutyl)phenyl)-6-(((1-methylcyclobutyl)amino)methyl)isoindolin-1-one], on Cbl-b, the IC50 (in general, the concentration needed to halve the response being measured) was 0.0086 µM and the “fold-selectivity (Cbl-b over C-cbl)” value stood at 1.7x. In test [1], the Fold of selectivity is on record as 2.1× and the Kd (commonly the concentration at which binding is half-saturated) amounted to 0.0042 µM. This compound also came in with an IC50 against c-Cbl of 0.015 µM. The same compound had a dissociation constant Kd at c-Cbl (residues 47-435) of 0.0085 µM.

On to `Cn1cnnc1[C@]1(c2cccc(N3Cc4c(cc(CNC5(C)CCC5)cc4C(F)F)C3=O)c2)C[C@H](F)C1` [Compound 247, 4-(difluoromethyl)-2-(3-((1s,3s)-3-fluoro-1-(4-methyl-4H-1,2,4-triazol-3-yl)cyclobutyl)phenyl)-6-(((1-methylcyclobutyl)amino)methyl)isoindolin-1-one], for which, on Cbl-b, half-maximal inhibition (IC50) was put at 0.0098 µM and the “fold-selectivity (Cbl-b over C-cbl)” value amounted to 1.9x. In test [1], this compound displayed a Fold of selectivity of 5.5× and a Kd of 0.0022 µM. Further, on c-Cbl, the IC50 stood at 0.018 µM. This compound also yielded a Kd at c-Cbl (residues 47-435) of 0.012 µM.

With `Cn1cnnc1[C@H](CC1CCCC1)c1cccc(N2Cc3c(cc(CNC4(C)CCC4)cc3C(F)(F)F)C2=O)c1` [Compound 249, (R)-2-(3-(2-cyclopentyl-1-(4-methyl-4H-1,2,4-triazol-3-yl)ethyl)phenyl)-6-(((1-methylcyclobutyl)amino)methyl)-4-(trifluoromethyl)isoindolin-1-one], the IC50 on Cbl-b was determined as 0.1 µM; at c-Cbl, 0.5 µM. The “fold-selectivity (Cbl-b over C-cbl)” value at Cbl-b is 5.0x. The Fold of selectivity in test [1] is 6.9×. The results for the Kd (in test [1]; on c-Cbl (residues 47-435)) were 0.049 µM and 0.3 µM, respectively.

For the compound `Cn1cnnc1[C@@H](c1cccc(N2Cc3c(cc(CNC4(C)CCC4)cc3C(F)(F)F)C2=O)c1)C1CCCC1` [Compound 256, (R)-2-(3-(cyclopentyl(4-methyl-4H-1,2,4-triazol-3-yl)methyl)phenyl)-6-(((1-methylcyclobutyl)amino)methyl)-4-(trifluoromethyl)isoindolin-1-one], on Cbl-b, the IC50 was determined as 0.21 µM and the “fold-selectivity (Cbl-b over C-cbl)” value was 6.5x. Moreover, in test [1], the Fold of selectivity is given as 14× and the Kd was determined as 0.18 µM. The IC50 at c-Cbl came to 1.4 µM. Also, the Kd on c-Cbl (residues 47-435) was 2.5 µM.

For the compound `Cn1cnnc1[C@H](c1cccc(N2Cc3c(cc(CNC4(C)CCC4)cc3C(F)(F)F)C2=O)c1)C1CCCC1` [Compound 257, (S)-2-(3-(cyclopentyl(4-methyl-4H-1,2,4-triazol-3-yl)methyl)phenyl)-6-(((1-methylcyclobutyl)amino)methyl)-4-(trifluoromethyl)isoindolin-1-one], on Cbl-b, the IC50 was found to be 0.022 µM and the “fold-selectivity (Cbl-b over C-cbl)” value is given as 1.2x. In test [1], the Fold of selectivity is on record as 5.7× and the Kd was determined as 0.00065 µM. On c-Cbl, this compound came in with an IC50 of 0.027 µM. In addition, at c-Cbl (residues 47-435), the Kd turned out to be 0.0037 µM.

In the case of `Cn1cnnc1[C@@H](c1cccc(N2Cc3c(cc(CNC4(C)CCC4)cc3C(F)(F)F)C2=O)c1)C1CCC1` [Compound 258, (R)-2-(3-(cyclobutyl(4-methyl-4H-1,2,4-triazol-3-yl)methyl)phenyl)-6-(((1-methylcyclobutyl)amino)methyl)-4-(trifluoromethyl)isoindolin-1-one], the results for the IC50 against Cbl-b and against c-Cbl were 0.17 µM and 0.97 µM, respectively. Further, the “fold-selectivity (Cbl-b over C-cbl)” value at Cbl-b came to 5.8x. For the same compound, in test [1], the Fold of selectivity was found to be 13×. Also, the Kd was found to be 0.17 µM in test [1] and 2.2 µM on c-Cbl (residues 47-435).

On to `Cn1cnnc1[C@@H](c1cccc(N2Cc3c(cc(CNC4(C)CCC4)cc3C(F)(F)F)C2=O)c1)C1CC(OCC(F)F)C1` (stereo partly drawn) [Compound 260, 2-(3-((R)-((1r,3R)-3-(2,2-difluoroethoxy)cyclobutyl)(4-methyl-4H-1,2,4-triazol-3-yl)methyl)phenyl)-6-(((1-methylcyclobutyl)amino)methyl)-4-(trifluoromethyl)isoindolin-1-one], for which, on Cbl-b, the IC50 was determined as 0.45 µM and the “fold-selectivity (Cbl-b over C-cbl)” value was 5.4x. Besides, in test [1], the Fold of selectivity is reported as 8.8× and the dissociation constant Kd came out at 0.59 µM. This compound came in with a half-inhibitory concentration (IC50) at c-Cbl of 2.4 µM. Binding at c-Cbl (residues 47-435) was put at a Kd of 2.2 µM.

Turning to `Cn1cnnc1[C@@H](c1cccc(N2Cc3c(Cl)cc(CNC4(C)CCC4)cc3C2=O)c1)C1COC1` [Compound 270, (R)-4-chloro-2-(3-((4-methyl-4H-1,2,4-triazol-3-yl)(oxetan-3-yl)methyl)phenyl)-6-(((1-methylcyclobutyl)amino)methyl)-isoindolin-1-one], the IC50 stood at 0.011 µM at Cbl-b and 0.027 µM on c-Cbl. Also, the “fold-selectivity (Cbl-b over C-cbl)” value at Cbl-b came to 2.3x. For the same compound, the Fold of selectivity in test [1] turned out to be 5.9×. Also, the results for the Kd (in test [1]; on c-Cbl (residues 47-435)) were 0.0026 µM and 0.016 µM, respectively.

With `Cn1cnnc1[C@]1(c2cccc(N3Cc4c(cc(CNC5(C)CCC5)cc4C(F)F)C3=O)c2)C[C@@H](F)C1` [Compound 272, 4-(difluoromethyl)-2-(3-((1r,3r)-3-fluoro-1-(4-methyl-4H-1,2,4-triazol-3-yl)cyclobutyl)phenyl)-6-(((1-methylcyclobutyl)amino)methyl)isoindolin-1-one], at Cbl-b, the midpoint of inhibition, the IC50, lay at 0.015 µM and the “fold-selectivity (Cbl-b over C-cbl)” value is reported as 1.7x. In test [1], this compound came in with a Fold of selectivity of 7.6× and a Kd of 0.0014 µM. The same compound yielded an IC50 on c-Cbl of 0.025 µM. At c-Cbl (residues 47-435), this compound came in with a Kd of 0.011 µM.

Regarding `CCNc1cc([C@]2(c3nncn3C)C[C@@H](C)C2)cc(N2Cc3c(cc(CNC4(C)CCC4)cc3C(F)F)C2=O)n1` [Compound 274, 4-(difluoromethyl)-2-(6-(ethylamino)-4-((1s,3s)-3-methyl-1-(4-methyl-4H-1,2,4-triazol-3-yl)cyclobutyl)pyridin-2-yl)-6-(((1-methylcyclobutyl)amino)methyl)isoindolin-1-one], on Cbl-b, the IC50 is 0.0075 µM and the “fold-selectivity (Cbl-b over C-cbl)” value worked out at 0.91x. In test [1], this compound gave a Fold of selectivity of 2.0× and a Kd of 0.0001 µM. On c-Cbl, this compound yielded an IC50 of 0.0069 µM. In addition, binding on c-Cbl (residues 47-435) was characterised by a dissociation constant (Kd) of 0.0002 µM.

`Cn1cnnc1[C@@H](C[C@H]1CCOC1)c1cccc(N2Cc3c(cc(CNC4(C)CCC4)cc3C(F)(F)F)C2=O)c1` [Compound 277, 2-(3-((S)-1-(4-methyl-4H-1,2,4-triazol-3-yl)-2-((S)-tetrahydrofuran-3-yl)ethyl)phenyl)-6-(((1-methylcyclobutyl)amino)methyl)-4-(trifluoromethyl)isoindolin-1-one]: the values for the half-maximal inhibitory concentration (IC50) against Cbl-b and on c-Cbl were 3.6 µM and 8.6 µM, respectively. Besides, at Cbl-b, the “fold-selectivity (Cbl-b over C-cbl)” value is reported as 2.3x. This compound also came in with a Fold of selectivity in test [1] of 5.3×. Also, the Kd in test [1] stood at 1.4 µM; at c-Cbl (residues 47-435) it was 7.7 µM.

Regarding `Cn1cnnc1[C@H](C[C@H]1CCOC1)c1cccc(N2Cc3c(cc(CNC4(C)CCC4)cc3C(F)(F)F)C2=O)c1` [Compound 278, 2-(3-((R)-1-(4-methyl-4H-1,2,4-triazol-3-yl)-2-((S)-tetrahydrofuran-3-yl)ethyl)phenyl)-6-(((1-methylcyclobutyl)amino)methyl)-4-(trifluoromethyl)isoindolin-1-one], the results for the IC50 against Cbl-b and against c-Cbl were 5 µM and 8.9 µM, respectively. Moreover, the “fold-selectivity (Cbl-b over C-cbl)” value at Cbl-b is listed as 1.8x. The Fold of selectivity in test [1] came out at 4.8×. Further, the Kd was 1.8 µM in test [1] and 8.6 µM on c-Cbl (residues 47-435).

For the compound `Cn1cnnc1C1(c2cccc(N3Cc4c(cc(CNC5(C)CCC5)cc4C(F)(F)F)C3=O)c2)CCC1` [Compound 279, 2-(3-(1-(4-methyl-4H-1,2,4-triazol-3-yl)cyclobutyl)phenyl)-6-(((1-methylcyclobutyl)amino)methyl)-4-(trifluoromethyl)isoindolin-1-one], the IC50 against Cbl-b is 0.0066 µM; on c-Cbl it was 0.0093 µM. Also, the “fold-selectivity (Cbl-b over C-cbl)” value at Cbl-b came out at 1.4x. This compound also registered a Fold of selectivity in test [1] of 6.4×. For the same compound, the Kd in test [1] was found to be 0.0018 µM; on c-Cbl (residues 47-435) it was 0.012 µM.

Regarding `Cn1cnnc1[C@]1(c2cccc(N3Cc4c(cc(CNC5(C)CCC5)cc4C(F)(F)F)C3=O)c2)C[C@H](OCC#N)C1` [Compound 280, 2-((1s,3s)-3-(4-methyl-4H-1,2,4-triazol-3-yl)-3-(3-(6-(((1-methylcyclobutyl)amino)methyl)-1-oxo-4-(trifluoromethyl)isoindolin-2-yl)phenyl)cyclobutoxy)acetonitrile], at Cbl-b, inhibition was half-maximal at 0.0068 µM (IC50) and the “fold-selectivity (Cbl-b over C-cbl)” value worked out at 1.6x. Moreover, in test [1], the Fold of selectivity came to 7.0× and the Kd amounted to 0.0011 µM. Also, 0.011 µM corresponded to half-maximal inhibition on c-Cbl (IC50). This compound returned a Kd at c-Cbl (residues 47-435) of 0.0072 µM.

Regarding `Cn1cnnc1[C@]1(c2cccc(N3Cc4c(cc(CNC5(C)CCC5)cc4C(F)(F)F)C3=O)c2)C[C@@H](OCC#N)C1` [Compound 281, 2-((1r,3r)-3-(4-methyl-4H-1,2,4-triazol-3-yl)-3-(3-(6-(((1-methylcyclobutyl)amino)methyl)-1-oxo-4-(trifluoromethyl)isoindolin-2-yl)phenyl)cyclobutoxy)acetontrile], at Cbl-b, half-maximal inhibition (IC50) required 0.0067 µM and the “fold-selectivity (Cbl-b over C-cbl)” value was 1.3x. In test [1], this compound returned a Fold of selectivity of 6.3× and a Kd of 0.0011 µM. This compound also gave an IC50 against c-Cbl of 0.0095 µM. The affinity at c-Cbl (residues 47-435), expressed as Kd, was 0.007 µM.
